Data taken from US7671040B2, “Chemotherapeutic antineoplastic treatment” (Laboratoires Goemar S.A., priority 2003, dated 2010).
“And” between values parts separate entries of the source, which are not always exact repeats. Identical values can stand only once. Like-named read-outs stand apart in the source and are kept apart here.

Assays:
[1] = tested on: cells in peripheral blood; conditions: for Number of cells, peripheral blood, average: average of group; for Number of cells, peripheral blood, individual mice: single mice
Excerpt: The injection was an intraperitoneally injection.
The peripheral blood of the mice of the first and the second groups of mice under experimentation according to a) was used to determine the total number of all cells on day 0 and then on each of the following days until day 10 on several mice selected from each of the first and the second groups.
The number of cells in peripheral blood has been evaluated as hereafter disclosed.

cells in bone marrow = conditions: for Number of cells, bone marrow, average: average of group; for Number of cells, bone marrow, individual mice: single mice
Protocol: A first group and a second group comprising each 50 mice of the Balb/c type were tested.
On day 0 and then each day after day 0, during 10 days, the total number of cells per ml in bone marrow was determined on several mice of each of both first and second groups.
The number of cells in bone marrow was evaluated as hereafter disclosed. The mice were killed by cervical dislocation, placed on their back on cutting board and soaked with ethanol. A long traverse cut through the skin in the middle of the abdominal area was followed by reflecting the skin from the hindquarters and the hind legs. The legs were separated from the body at the hip joint and the feet were removed. The legs were placed in a Petri dish obtaining RPMI 1640 medium (Sigma). All muscle tissue from the femurs and tibia was removed and the bones were separated (only femurs were used). The epiphyses were cut off on both ends, the bone end was punctured with a 23 G needle and flushed out with 3 ml of warm (22° C.) RPMI 1640 medium. The large debris and cell clumps were removed by layering the cell suspension over 3 ml of heat-inactivated fetal calf serum (FCS; Hyclone, Logan, Utah, USA) for 10 minutes on ice. The cells collected from the top of FCS were washed once by centrifugation at 300×g for 10 minutes at 4° C. and kept in RMPI 1640 medium containing 5% FCS. Five microliters of the cell suspension was mixed with 95 ul of Turk's solution (a mixture of 3 ml concentrated acetic acid, 3 ml of 1% crystal violet in water, Fernandez-Botran and Vetvicka “Methods in Cellular Immunology”, CRC Press, Boca Raton, 1995), and incubated for 5 minutes at room temperature. One drop of this solution has been dropped into a hemocytometer and the cells were counted under an optical microscope.
The result of the counting is expressed in number of cells per femur×10^6.

## O=P1(N(CCCl)CCCl)NCCCO1 (stereo not drawn) [cyclophosphamide]
[1]; day 1
  Number of cells, peripheral blood, average: 3.6 per ml × 10^5
[1]; day 2
  Number of cells, peripheral blood, average: 3.6 per ml × 10^5
  Number of cells, peripheral blood, individual mice: 6.6 per ml × 10^5 and 6.0 per ml × 10^5 and 6.3 per ml × 10^5
[1]; day 3
  Number of cells, peripheral blood, average: 4.2 per ml × 10^5
  Number of cells, peripheral blood, individual mice: 3.8 per ml × 10^5 (2×) and 5.1 per ml × 10^5
[1]; day 4
  Number of cells, peripheral blood, average: 5.1 per ml × 10^5
[1]; day 5
  Number of cells, peripheral blood, average: 7.2 per ml × 10^5
  Number of cells, peripheral blood, individual mice: 4.0 per ml × 10^5 and 9.6 per ml × 10^5 and 8.1 per ml × 10^5
[1]; day 6
  Number of cells, peripheral blood, average: 6.5 per ml × 10^5
  Number of cells, peripheral blood, individual mice: 7.8 per ml × 10^5 and 5.0 per ml × 10^5 and 6.7 per ml × 10^5
[1]; day 7
  Number of cells, peripheral blood, average: 6.4 per ml × 10^5
  Number of cells, peripheral blood, individual mice: 3.8 per ml × 10^5 and 7.3 per ml × 10^5 and 8.1 per ml × 10^5
[1]; day 8
  Number of cells, peripheral blood, average: 7.2 per ml × 10^5
  Number of cells, peripheral blood, individual mice: 4.1 per ml × 10^5 and 8.2 per ml × 10^5 and 9.3 per ml × 10^5
[1]; day 9
  Number of cells, peripheral blood, average: 11.2 per ml × 10^5
  Number of cells, peripheral blood, individual mice: 8.9 per ml × 10^5 and 11.9 per ml × 10^5 and 12.9 per ml × 10^5
[1]; day 10
  Number of cells, peripheral blood, average: 29.2 per ml × 10^5
  Number of cells, peripheral blood, individual mice: 23.8 per ml × 10^5 and 27.8 per ml × 10^5 and 35.9 per ml × 10^5
Cells in bone marrow; day 1
  Number of cells, bone marrow, average: 1.25 per femur × 10^6
Cells in bone marrow; day 1 after i.p. injection
  Number of cells, bone marrow, individual mice: 1 per femur × 10^6 and 1.2 per femur × 10^6 and 1.4 per femur × 10^6 (2×)
Cells in bone marrow; day 2
  Number of cells, bone marrow, average: 1.25 per femur × 10^6
  Number of cells, bone marrow, individual mice: 0.8 per femur × 10^6 and 2.0 per femur × 10^6 and 2.4 per femur × 10^6
Cells in bone marrow; day 3
  Number of cells, bone marrow, average: 3.6 per femur × 10^6
Cells in bone marrow; day 4
  Number of cells, bone marrow, average: 2.7 per femur × 10^6
Cells in bone marrow; day 5
  Number of cells, bone marrow, average: 4.7 per femur × 10^6
  Number of cells, bone marrow, individual mice: 2.1 per femur × 10^6 and 6.0 per femur × 10^6 and 6.1 per femur × 10^6
Cells in bone marrow; day 6
  Number of cells, bone marrow, average: 6.4 per femur × 10^6
  Number of cells, bone marrow, individual mice: 6.5 per femur × 10^6 and 5.7 per femur × 10^6 and 7.0 per femur × 10^6
Cells in bone marrow; day 7
  Number of cells, bone marrow, average: 8.1 per femur × 10^6
  Number of cells, bone marrow, individual mice: 9.0 per femur × 10^6 and 8.1 per femur × 10^6 and 7.3 per femur × 10^6
Cells in bone marrow; day 8
  Number of cells, bone marrow, average: 6.3 per femur × 10^6
  Number of cells, bone marrow, individual mice: 6.0 per femur × 10^6 and 6.2 per femur × 10^6 and 6.8 per femur × 10^6
Cells in bone marrow; day 9
  Number of cells, bone marrow, average: 8.2 per femur × 10^6
  Number of cells, bone marrow, individual mice: 8.0 per femur × 10^6 and 8.5 per femur × 10^6 and 8.2 per femur × 10^6
Cells in bone marrow; day 10
  Number of cells, bone marrow, average: 9.4 per femur × 10^6
  Number of cells, bone marrow, individual mice: 7.2 per femur × 10^6 and 10.8 per femur × 10^6 and 10.3 per femur × 10^6
